In the supplement of paper PMC10307832:

Experiments:
Test in all cases: relative viability (nuclei count vs DMSO), 5 days (fraction); higher = more cells survive
Bortezomib + Palbociclib = compound: CC(C)C[C@H](NC(=O)[C@H](Cc1ccccc1)NC(=O)c1cnccn1)B(O)O [Bortezomib] + CC(=O)c1c(C)c2cnc(Nc3ccc(N4CCNCC4)cn3)nc2n(C2CCCC2)c1=O [Palbociclib] (partner 0.5 µM)
Summary of the method: (§1)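 Each reported value is a median over duplicate plates. It expresses relative viability: treated-well nuclei count divided by vehicle-well nuclei count. Lung cancer cell lines in 1536-well plates were dosed by pin tool a day after seeding, alone with one drug or with a fixed anchor-drug dose plus five library-drug doses (not always all listed) in √10 steps, and nuclei were counted after 5 days.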

[1] = compound: CC1=CC(=NN1)NC2=CC(=NC(=N2)/C=C/C3=CC=CC=C3)N4CCN(CC4)C + C[C@@H](Oc1cc(-c2cnn(C3CCNCC3)c2)cnc1N)c1c(Cl)ccc(F)c1Cl [Crizotinib] (partner 1 µM)
Summary of the method: as §1

Obatoclax + Palbociclib = compound: COC1=CC(c2cc3ccccc3[nH]2)=N/C1=C\c1[nH]c(C)cc1C [Obatoclax] + CC(=O)c1c(C)c2cnc(Nc3ccc(N4CCNCC4)cn3)nc2n(C2CCCC2)c1=O [Palbociclib] (partner 0.5 µM)
Summary of the method: as §1

[2] = compound: CC1=CC(=NN1)NC2=CC(=NC(=N2)/C=C/C3=CC=CC=C3)N4CCN(CC4)C + C[C@]1(O)C[C@@H](c2nc(-c3ccc4ccc(-c5ccccc5)nc4c3)c3c(N)nccn32)C1 [Linsitinib] (partner 1 µM)
Summary of the method: as §1

Row | Cell Line | relative viability (Bortezomib + Palbociclib; first compound 0.0002 µM) | relative viability (Bortezomib + Palbociclib; first compound 0.000632 µM) | relative viability (Bortezomib + Palbociclib; first compound 0.002 µM) | relative viability (Bortezomib + Palbociclib; first compound 0.006325 µM) | relative viability (Bortezomib + Palbociclib; first compound 0.02 µM) | relative viability ([1]; first compound 0.08 µM) | relative viability ([1]; first compound 0.253 µM) | relative viability ([1]; first compound 0.8 µM) | relative viability ([1]; first compound 2.53 µM) | relative viability ([1]; first compound 8 µM) | relative viability (Obatoclax + Palbociclib; first compound 0.01 µM) | relative viability (Obatoclax + Palbociclib; first compound 0.03162 µM) | relative viability (Obatoclax + Palbociclib; first compound 0.1 µM) | relative viability (Obatoclax + Palbociclib; first compound 0.3162 µM) | relative viability (Obatoclax + Palbociclib; first compound 1 µM) | relative viability ([2]; first compound 0.08 µM) | relative viability ([2]; first compound 0.253 µM) | relative viability ([2]; first compound 0.8 µM) | relative viability ([2]; first compound 2.53 µM) | relative viability ([2]; first compound 8 µM)
1 | ChaGo-K-1 | 0.956 | 0.903 | 0.942 | 0.382 | 0.136 | 1.1 | 1.07 | 1.13 | 0.484 | 0.267 | 0.912 | 0.925 | 0.91 | 0.903 | 0.99 | – | – | – | – | –
2 | EBC-1 | – | – | – | – | – | 0.188 | 0.185 | 0.213 | 0.137 | 0.108 | – | – | – | – | – | 0.852 | 0.874 | 0.923 | 0.71 | 0.317
3 | EKVX | 0.361 | 0.401 | 0.28 | 0.171 | 0.079 | 0.991 | 1.12 | 0.978 | 0.552 | 0.147 | 0.438 | – | 0.393 | 0.388 | 0.386 | 1.02 | 1.13 | 1.1 | 0.788 | 0.144
4 | EMC-BAC-2 | 0.524 | 0.484 | 0.466 | 0.285 | 0.205 | 0.788 | 0.721 | 0.566 | 0.296 | 0.0972 | 0.502 | 0.494 | 0.474 | 0.556 | 0.432 | 0.821 | 0.91 | 0.77 | 0.594 | 0.204
5 | EPLC-272H | 0.307 | 0.29 | 0.304 | 0.111 | 0.0584 | 0.884 | 1.06 | 0.711 | 0.452 | 0.174 | 0.323 | 0.313 | 0.477 | 0.266 | 0.282 | 1.11 | 1.32 | 1.06 | 0.675 | 0.367
6 | H3255 | 0.322 | 0.335 | 0.285 | 0.256 | 0.243 | 0.731 | 0.936 | 0.943 | 0.74 | 0.192 | 0.308 | 0.299 | 0.278 | 0.327 | 0.324 | 0.95 | 1.09 | 0.975 | 0.886 | 0.391
7 | HARA | 0.185 | 0.253 | 0.288 | 0.166 | 0.152 | 1.05 | 1.01 | 0.932 | 0.138 | 0.1 | 0.314 | 0.224 | 0.285 | 0.242 | 0.216 | 1.07 | 0.899 | 1.03 | 0.139 | 0.0705
8 | HCC-15 | 0.622 | 0.769 | 0.689 | 0.104 | 0.0904 | 0.864 | 0.823 | 0.783 | 0.298 | 0.0811 | 0.672 | 0.728 | 0.695 | 0.752 | 0.609 | 0.908 | 0.967 | 0.853 | 0.469 | 0.149
9 | HCC-44 | 1.02 | 1.02 | 0.943 | 0.759 | 0.278 | 0.756 | 0.837 | 0.787 | 0.386 | 0.0992 | 0.922 | 0.916 | 0.967 | 0.993 | 0.94 | 0.64 | 0.755 | 0.659 | 0.235 | 0.201
